By IC50 is commonly meant the concentration that gives 50% inhibition.

Here are results for eleven compounds from patent US6265439A, “Halogenated phenylacetonitrile alkylaminoalkylphenyl compounds as immunosuppressives” (G.D. Searle & Co., priority 2000, dated 2001).

Counter-ions that a name gives are not always drawn.

The test system of assay [1] is conA stimulated spleen cells (T lymphocytes) from female Balb/c mice. Put plainly: Assay B: Suppression of Mitogen-Stimulated Proliferation (Murine) (Culture Conditions II). In kind it is cell-based, Murine (Balb/c mice). The note with it: Mus musculus, T-lymphocyte, 72 h; conA 1 ug/ml, 10^5 cells per well, 3 days, MTT. From the text: Assay B: Suppression of Mitogen-Stimulated Proliferation(Murine)(Culture Conditions II.)
It is known that lymphocyte activation can be polyclonally stimulated by plant lectins and other mitogenic substances that induce blast transformation and mitosis. The plant lectin concanavalin A (conA) preferentially induces activation and proliferation of T lymphocytes. Exposure of T cells to conA results in polyclonal T cell activation, and this response can be used to determine the in vitro index of immunomodulatory effects of test compounds on pan-T cell activation. Spleen cells were harvested asceptically from female Balb/c mice, and cells were extruded by compression in phosphate buffered saline (pH 7.0). Cells were pelleted by centrifugation (300×g/5 min) and erythrocytes were lysed by resuspension of the splen cells in a hypotonic solution (5 ml per spleen) containing 0.14M NH4 Cl and 0.017M Tris base, pH 7.2, and incubation for 5 min. An equal volume of freshly prepared medium [lscovels modified Dulbecco's medium containing 2 mM L-glutamine, 5% heat inactivated (56° C./45 min) fetal bovine serum and 40 uM 2-mercaptoethanol] .was added to stop cell lysis. The remaining cells were pelleted, resuspended in medium, filtered through a cotton plug to remove debris, and the leukocytes were then counted. Leukocytes (10^5 cells per 10 ul per well) were incubated at 37° C. in a 95% air/[…] atmosphere in 96 well microtiter plates for 3 days. At the start of culture conA (1 ug/ml, SIGMA Chemical Co., St. Louis, Mo.) alone or in combination with test compound (0.0001-60 uM final) or vehicle control (0.6% DMSO or ethanol). All test compounds were dissolved in 95% ethanol or 100% DMSO, and subsequent dilutions were prepared in media. Inhibition of conA stimulated T cell proliferation was measured using a calorimetric indicator of cell growth and proliferation, MTT [3-(4,5-dimethylthiazol-2-yl)-2 diphenyltetrazolium bromide; 100 ul of a 1 mg/ml solution per well, SIGMA][Mosmann, T., 1988. J. Immunol. Methods 65, 55-63.]Cells were loaded with MTT dye at 37° C. for 4 hours; media supernatants were then aspirated from the cell pellets. MTT loaded cells were solubilized in isopropanol (150 ul per well). Light absorbance was measured at a test wavelength of 570 nm and a reference wavelength of 650 nm using a spectrophotometer. EC50 values for immunosuppressive compounds were estimated by four parameter logistical regression analysis of the optical density data [Delean, A., Munson, P. J. and D. Robard, 1978. Am,. J. Physiol. 235:397.

Assay [2] relates to human peripheral blood mononuclear cells. Put plainly: Assay C: One-Way Mixed Lymphocyte Reaction (Human). In kind it is cell-based. The settings on record: mitomycin-C inactivated Raji stimulator cells, 120 hours, 3H-thymidine incorporation. An excerpt: Assay C: One-Way Mixed Lymphocyte Reaction (Human)
The mixed lymphocyte reaction (MLR) is an assay that measures T-cell activation and mitosis which occurs when lymphocytes from different major and minor histocompatibility complex (MHC) haplotypes are cocultured. This response is considered a "one-way MLR" when stimulator cells are made unresponsive by inhibition of DNA synthesis (treatment with mitomycin-C or gamma-irradiation) prior to coculture with responder cells. This assay can be used as an indicator of the cellular immunomodulation mechanisms involved in transplant rejection. In this assay, human peripheral blood mononuclear cells(PMNC) were used as the responder cell population and were isolated from normal donor blood as follows: Blood samples were collected in LeucoPREP™ tubes (Becton Dickinson, Lincoln Park, N.J.) and the mononuclear cell preparation was obtained by following the manufacturers procedures. Isolated mononuclear cells were co-incubated at 6×10^4 cells/well with a stimulator cell line at 2×10^4 cells/well in RPMI 1640 medium containing 5% fetal bovine serum and 2-mercaptoethanol (40 μM). The stimulator cell line, Raji, which was derived from a human Burkitt lymphoma (American Type Culture Collection, Rockville Md.) was previously inactivated by mitomycin-C treatment (Sigma, St. Louis Mo., 25 μg/ml, 37° for 30 minutes). After repeated washings of mitomycin-C from the stimulator cell line, cocultures were incubated in 96 well microtiter plates at 37° C., in 95% air/5% CO2 atmosphere for 120 hours in the presence or absence of test compounds (0.1-25 μM). Inhibition of proliferation was measured by reduced incorporation of ^3 H-thymidine (0.5 μCi/well, added during the last 24 hours of the assay). The IC50 values for the immunosuppressant compounds were calculated by four parameter logistic regression analysis of the results [Delean et al, Id.]
On the technique in general: Dividing cells build labelled thymidine or BrdU into new DNA.

Assay [3] relates to ConA-stimulated spleen cells (T-cells) from female Balb/c mice. Put plainly: Assay A: Suppression of Mitogen-Stimulated Proliferation (Murine) (Culture Conditions I). It is filed as cell-based, Murine (Balb/c mice). The settings on record: Mus musculus, T-cell, 120 h; ConA 1.0 μg/ml, 10^5 cells/well, 5 days, MTT. An excerpt:
Assay A: Suppression of Mitogen-Stimulated Proliferation (Murine)(Culture Conditions I)
Lymphocyte activation can be polyclonally stimulated by plant lectins and other mitogens that induce blast transformation and mitosis. Certain mitogens like Concanavalin A (ConA), preferentially activate T-lymphocytes. Exposure to ConA results in polyclonal activation of T-cells and can be used as an in vitro index for general immunomodulation of pan T-cell activity. In this assay spleen cells harvested from female Balb/c mice were incubated at 37° C., in 95% air/5% CO2 atmosphere in 96 well microtiter plates (10^5 cells/well) for 5 days with Iscove's modified Dulbecco's medium [25 mM HEPES […] L-glutamine, 5% fetal bovine serum and 2-mercaptoethanol (40 μM)], concanavalin A (ConA) alone (Sigma, St. Louis, Mo.; 1.0 μg/ml) or ConA in the presence of test compounds (0.001-25 μM). Inhibition of ConA-stimulated proliferation was measured by addition of the calorimetric indicator of growth metabolic activity or viability, MTT (3-(4,5-dimethylthiazol-2-yl)-2 diphenyl tetrazolium bromide; (100 μl/well, 1 mg/ml) Sigma) [Mosmann, T., J. of Immunological Methods, 65, 55-63, 1988]. After four hours, plates were centrifuged (1200 rpm) media supernatants aspirated and dye loaded cells were solubilized in isopropanol (150 μl/well). The absorbance was measured on an ELISA plate reader with a test wavelength of 570 nm and a reference of 630 nm. The IC50 values for active immunosuppressant compounds were calculated by four parameter logistic regression analysis of the results [Delean et al, Am. J. Physiol., 235, 397 (1978)].

The conditions of assay [4]: literature, Acta. Pharmacologica Sinica, 11(3), 281-285 (1990); cited from earlier work.

With `CC(C)C(C#N)(CCCN(Cc1ccccc1)Cc1ccccc1)c1ccc(F)cc1` (racemic) [Example 10, (±)-α-[3-[bis(phenylmethyl)amino]propyl]-4-fluoro-α-(1-methylethyl)benzeneacetonitrile, monohydrochloride], in assay [1], the IC50 amounted to 13500 nM.

Regarding `CC(C)C(C#N)(CCCCN(C)Cc1ccccc1)c1ccc(F)cc1` (racemic) [Example 5, (±)-4-fluoro-α-(1-methylethyl)-α-[4-(methyl (phenylmethyl)amino]butyl]benzeneacetonitrile, monohydrochloride], the figures for the IC50 in assay [2], in assay [3] and in assay [1] were 2100 nM, 900 nM and 1760 nM, respectively.

Take `CN(CCCC(C#N)(c1ccc(F)cc1)C1CCCC1)Cc1ccccc1` (racemic) [Example 4, (±)-α-cyclopentyl-4-fluoro-α-[3-(methyl(phenylmethyl)amino]propyl]benzeneacetonitrile, monohydrochioride]: the IC50 in assay [2] was found to be 2300 nM; in assay [3] it was 3200 nM; in assay [1] it was 4810 nM.

Turning to `CC(C)C(C#N)(CCCCCN(C)Cc1ccccc1)c1ccc(F)cc1` (racemic) [Example 6, (±)-4-fluoro-α-(1-methylethyl)-α-[5-methyl(phenylmethyl)amino]pentyl]benzeneacetonitrile], the IC50 in assay [3] turned out to be 500 nM; in assay [1], 930 nM.

As to `COC(=O)C1=C(C)NC(C)=C(C(=O)OC)C1c1ccccc1[N+](=O)[O-]` [nifedipine], in assay [4], the “acute and chronic antiinflammatory effects” value is “dose-dependent acute and chronic antiinflammatory effects”.

Consider `CC(C)C(C#N)(CCCN(C)Cc1ccccc1)c1ccc(F)cc1` (racemic) [Example 2, (±)-4-fluoro-α-(1-methylethyl)-α-[3-[methyl (phenylmethyl)amino]propyl]benzeneacetonitrile, monohydrochloride], for which the results for the IC50 in assay [2], in assay [3] and in assay [1] were 7200 nM, 2200 nM and 5190 nM, respectively.

`CC(C)C(C#N)(CCCN(C)CCc1ccccc1)c1ccc(F)cc1` (racemic) [Example 3, (±)-4-fluoro-α-(1-methylethyl)-α-[3-[methyl(2-phenylethyl)amino]propyl]benzeneacetonitrile, monohydrochloride]: the results for the IC50 in assay [2], in assay [3] and in assay [1] were 4800 nM, 1000 nM and 3220 nM, respectively.

For the compound `CC(C)C(C#N)(CCCN(C)Cc1ccccc1)c1ccc(F)c(F)c1` (racemic) [Example 1, (±)-3,4-difluoro-α-(1-methylethyl)-α-[3-[methyl(phenylmethyl)amino]propyl]benzeneacetonitrile], in assay [1], the IC50 amounted to 2410 nM.

`COC(=O)C1=C(C)NC(C)=C(C(=O)OCCN(C)Cc2ccccc2)C1c1cccc([N+](=O)[O-])c1` (stereo not shown) [nicardipine]: in assay [4], the “acute and chronic antiinflammatory effects” value was “dose-dependent acute and chronic antiinflammatory effects”.

With `CC(C)C(C#N)(CCCN(C)Cc1ccccc1)c1c(F)cccc1F` (racemic) [Example 9, (±)-2,6-difluoro-α-(1-methylethyl)-α-[3-[methyl(phenylmethyl)amino]propyl]benzeneacetonitrile, monohydrochloride], the IC50 in assay [1] came out at 4150 nM.

Consider `CC(C)C(C#N)(CCCN(C)Cc1ccccc1)c1ccccc1F` (racemic) [Example 8, (±)-2-fluoro-α-(1-methylethyl)-α-[3-[methyl (phenylmethyl)amino]propyl]benzeneacetonitrile, monohydrochloride], for which the figures for the IC50 in assay [2], in assay [3] and in assay [1] were 2900 nM, 1400 nM and 3350 nM, respectively.
